Tested on: mesenchymal stem cells
Test: qRT-PCR of IDO and TSG6 expression in mesenchymal stem cells treated with priming candidates
Assay type: cell-based
Conditions: for expression of IDO / expression of TSG6: Table 1 compositions, 24 hours, FIG. 4, compared to untreated control or to single substances; for lowest effective concentration capable of inducing significantly increased expression of both TSG6 and IDO: stem cells treated 24 hours, TNF-α and IFN-γ at 5, 10, 20 ng/ml, IFN-α at 10, 20, 40 ng/ml, FIGS. 1-3
Experimental: In a 37° C. and 5% CO2 incubator, mesenchymal stem cells in a storage state (LN2 tank storage) were thawed and cultured, and at this time, the cells were cultured in a medium (DMEM, alpha-MEM) containing 10% FBS or 4% hPL until proliferated to a cell confluence of about 80%. The cultured mesenchymal stem cells were seeded in a 100 mm dish and treated with candidate substances for enhancing the functions of the mesenchymal stem cells for 24 hours, and then the concentrations of primary candidate substances for enhancing the functions were set.
TNF-α, IFN-γ, and IFN-α were selected as the primary candidate substances, and in order to confirm the lowest effective concentration capable of increasing the expression of TNFα-stimulated gene-6 (TSG6) and indoleamine 2,3-dioxygenase (IDO) to confirm the enhanced functions, the stem cells were treated with 5, 10, and 20 ng/ml of TNF-α, 5, 10, and 20 ng/ml of IFN-γ, and 10, 20, and 40 ng/ml of IFN-α, respectively, and changes in expression of TSG6 and IDO were confirmed.
The IDO was known as an immunomodulatory factor that inhibited the proliferation of immune cells such as T cells by converting tryptophan, which was essential for T cell proliferation, into kynurenine, and the TSG6 was known as an anti-inflammatory regulator secreted from mesenchymal stem cells. After culturing the stem cells, total RNA was isolated using TRIzol (Invitrogen), and cDNA was synthesized from total RNA using PrimeScript™RT reagent Kit with gDNA Eraser (TaKaRa), and qRT-PCR was performed. The results of TSG6 and IDO according to the concentration of each candidate substance were illustrated in FIGS. 1, 2 and 3.
Through Example 1, in order to search for more function-enhanced compositions based on the candidate substances and lowest effective concentrations identified to induce the enhanced functions of stem cells, selected candidate substances and combined concentrations thereof were set as shown in Table 1. Mesenchymal stem cells were treated with the candidate combinations described in Table 1 below for 24 hours, and the stem cells were cultured as in Example 1, and then total RNA was isolated using TRIzol (Invitrogen). Thereafter, qRT-PCR was performed by synthesizing cDNA from total RNA using the PrimeScript™RT reagent Kit with gDNA Eraser (TaKaRa).
Vitamins were known to improve the proliferative ability of stem cells and maintain the stemness of stem cells when added during a stem cell culture process. Accordingly, various vitamins were treated in the stem cell culture process, and experiments were performed to confirm whether or not vitamins could achieve anti-inflammatory and immune function enhancing effects of stem cells. Specifically, the stem cells were treated with various types of vitamins shown in Table 2 below according to the method described in Example 1, and the results of confirming changes in expression of IDO and TSG6 according to treatment with each candidate substance were illustrated in FIG. 5.

Substance	expression of IDO	expression of TSG6	lowest effective concentration capable of inducing significantly increased expression of both TSG6 and IDO [ng/mL]
IFN-α	increased expression	increased expression	20
IFN-γ [priming factor for stem cells, 10 ng/ml]	increased expression	increased expression	10
TNF-α	increased expression	increased expression	10
